Active and inactive are the calls of the source.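 The calls were made as follows: active = compounds giving half or more protection of infected cells from virus-caused growth loss, again on retest; inactive = the rest.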
Test system: CEM cells HIV-1 protection, formazan growth assay
Test: NCI AIDS Antiviral Assay
Details: for IC50: measured here: growth of uninfected CEM cells
In short: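 Soluble formazan readout of cell growth; CEM cells ± HIV-1; 5 drug concs. ≥50% protection → retest; ≥50% again = moderately active; reproducible 100% = confirmed active.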

Structure (SMILES)	EC50 [µM]	IC50 [µM]	outcome
CC1=CC(=O)/C(=C/n2c(=S)[nH]c3ccc([N+](=O)[O-])cc32)C(=O)O1	> 1000	178	–
O=P(NC12CC3CC(CC(C3)C1)C2)(N1CC1)N1CC1	–	–	inactive
CN(C)C1=NC(=O)C(c2ccccc2)O1 (stereo not given)	> 200	> 200	–
Cc1cn([C@H]2C[C@@H]3[C@@H](COC(C)(C[Se]c4ccccc4)N3O)O2)c(=O)[nH]c1=O (stereo not given in full)	50.1	162	–
CC1(C)CC(=O)/C(=C/C2CCNC2=S)C(=O)N1 (stereo not given)	> 501	> 501	–
C=C(C)C(=O)O[C@H]1C[C@@]23O[C@@H]2CCC(=C[C@H]2OC(=O)C(=C)[C@H]12)COC3O (stereo not given in full)	> 195	38	–
COc1ccccc1NC(=O)/C(=C\N1C(=O)/C(=C/c2cc(OC)c(OC)c(OC)c2)SC1=S)C(C)=O	> 100	12.9	–
O=C(CCl)Nc1ccc(C(=O)N/N=C/c2ccc(Cl)cc2)cc1	> 200	2.75	–
O=C1C=CC(=O)c2c1ccc1c3ccccc3n(-c3cccc([N+](=O)[O-])c3)c21	> 100	4.79	–
COC(=O)[C@@]12C(=O)C(C)C(=O)[C@]1(C)C(C)=C[C@H]1[C@]3(C=O)CC[C@H](OC(C)=O)C(C)(C)[C@H]3CC[C@@]12C (stereo not given in full)	> 200	97.7	–
C=C1C(=O)O[C@@H]2C1C(OC(C)CCC)[C@@H](O)[C@@H](C)C(O)C1O[C@]1(C)[C@H]2O (stereo not given in full)	–	–	inactive
C1CCC(CSSCC2(N3CCCC3)CCCCC2)(N2CCCC2)CC1	> 200	> 100	–
[O-]/C(=C\[P+](c1ccccc1)(c1ccccc1)c1ccccc1)c1ccccc1	> 200	32.4	–
COC(=S)SSC(=S)NCCNC(=S)SSC(=S)OC	> 200	9.55	–
C=CCSS(=O)CC=C (stereo not given)	–	–	inactive
Cc1cc2nnn(C3CCCO3)c2cc1C (stereo not given)	> 200	> 200	–
C=C1CC[C@]2(C)C3CC[C@]4(C)C(C(C)CCC(=O)O)CCC4[C@@H]3CC[C@@H]2C1 (stereo not given in full)	> 5.13	> 5.13	–

Structure (SMILES)	EC50 [µM]	IC50 [µM]	outcome
CCCCOC(=O)NC(Nc1ccc(S(N)(=O)=O)cc1)(C(F)(F)F)C(F)(F)F	> 200	> 200	–
COc1ccc2c(c1)-c1[nH]c3ccccc3c1CC2	> 200	12	–
Cc1cn([C@H]2C[C@@H]3[C@@H](COC(CCCC[Se]c4ccccc4)N3O)O2)c(=O)[nH]c1=O (stereo not given in full)	14.8	105	–
COc1cccc2c1C(=O)OC2c1cccc2ccccc12 (stereo not given)	–	–	inactive
CO[C@H]1CC[C@@]2(C)C(CC[C@@]3(C)CC4=C[C@H]5C(C)(CO)C(=O)CCC5(C)[C@H]4CCC32)C1(C)C (stereo not given in full)	> 100	> 100	–
Nc1ccc(S(=O)Cc2ccc(C(=O)O)cc2[N+](=O)[O-])cc1 (stereo not given)	> 776	> 776	–
CC[C@@]12CCC(=O)N3CCC4(C(=C(C(=O)OC)C1)Nc1ccccc14)[C@H]32 (stereo not given in full)	> 269	15.5	–
CCOc1ccc(/C=C2/C(=O)N=C(N)N=C2N)cc1OCC	–	–	inactive
CCc1[nH]nc(-c2ccc(OC)cc2)c1-c1ccccc1O	> 200	20.9	–
CN(C)P(CCP(CCP(N(C)C)N(C)C)c1ccccc1)N(C)C	> 617	> 617	–
NC(N)=N/N=C/c1oc(-c2ccc(S(=O)(=O)O)o2)c(-c2ccc(S(=O)(=O)O)o2)c1[N+](=O)[O-]	> 513	> 513	–
O=C(CCN1CCC(CCO)CC1)Nc1ccc2c(c1)C(=O)c1ccc(NC(=O)CCN3CCC(CCO)CC3)cc1C2=O	> 200	43.7	–
Cc1ccc(/C=N/NC2=NCCN2)s1	> 200	166	–
COc1c(OC(C)=O)ccc(/C=C2\N=C(C)OC2=O)c1[N+](=O)[O-]	–	–	inactive
CC(O)CNC(=O)C(C)Oc1ccc(OCC2CCCCC2)cc1 (stereo not given)	> 282	25.1	–
CCOC(=O)C(Cc1c[nH]c2ccc(N)cc12)(NC(C)=O)C(=O)OCC	> 200	> 200	–
